Here are results for twelve compounds from patent US20220135591A1, “HETEROCYCLIC COMPOUNDS AS INHIBITORS OF MONOACYLGLYCEROL LIPASE (MAGL)” (Hoffmann-La Roche Inc., priority 2019, published 2022).

This assay addresses T1, MAGL (recombinant wild-type) (Homo sapiens, UniProt Q99685).
T1 sequence (Q99685 1-303): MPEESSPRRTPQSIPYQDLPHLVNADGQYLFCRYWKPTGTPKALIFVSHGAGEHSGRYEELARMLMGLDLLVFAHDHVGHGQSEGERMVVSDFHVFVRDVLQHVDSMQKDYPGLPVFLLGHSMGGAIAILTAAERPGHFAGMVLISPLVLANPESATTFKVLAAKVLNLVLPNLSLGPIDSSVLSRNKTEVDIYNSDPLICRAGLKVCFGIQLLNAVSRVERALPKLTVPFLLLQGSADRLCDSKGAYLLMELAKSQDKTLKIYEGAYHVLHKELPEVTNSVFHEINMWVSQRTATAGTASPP
In words: 4-NPA assay: MAGL inhibitory activity by hydrolysis of 4-nitrophenylacetate, absorbance at 405 nm. The assay is classed as biochemical. The settings on record: 4-NPA assay (values without footnote [b]). The protocol: Compounds were profiled for MAGL inhibitory activity by measuring the enzymatic activity of MAGL by following the hydrolysis of 4-nitrophenylacetate resulting in 4-nitrophenol, which absorbs at 405-412 nm (G. G. Muccioli, G. Labar, D. M. Lambert, Chem. Bio. Chem. 2008, 9, 2704-2710). This assay is hereinafter abbreviated “4-NPA assay”.
The assay was carried out in 384 well assay plates (black with clear bottom, non-binding surface treated, Corning Ref. 3655) in a total volume of 40 μL. Compound dilutions were made in 100% DMSO (VWR Chemicals 23500.297) in a polypropylene plate in 3-fold dilution steps to give a final concentration range in the assay from 25 μM to 1.7 nM. 1 μL compound dilutions (100% DMSO) were added to 19 μL MAGL (recombinant wild-type) in assay buffer (50 mM TRIS (GIBCO, 15567-027), 1 mM EDTA (Fluka, 03690-100 mL)). The plate was shaked for 1 min at 2000 rpm (Variomag Teleshake) and then incubated for 15 min at RT. To start the reaction, 20 μL 4-Nitrophenlyacetate (Sigma N-8130) in assay buffer with 6% EtOH was added. The final concentrations in the assay were 1 nM MAGL and 300 μM 4-Nitrophenylacetate. After shaking (1 min, 2000 rpm) and 5 min incubation at RT, the absorbance at 405 nm was measured for a first time (Molecular Devices, SpectraMax Paradigm). A second measurement was then done after incubation for 80 min at RT. From the two measurements, the slope was calculated by subtracting the first from the second measurement.

As usually defined, the IC50 is the concentration at which inhibition is half-maximal.

For `Cc1ccc2oc(N3CCN(C(=O)c4ccc5nc(C6CC6)oc5c4)CC3)nc2n1` [Example 22, (2-cyclopropyl-1,3-benzoxazol-6-yl)-[4-(5-methyloxazolo[4,5-b]pyridin-2-yl)piperazin-1-yl]methanone], the IC50 came to 1250 nM.

On to `CC(=O)Cc1nc(-c2ccc(C(=O)N3CCN(c4nc5nc(Cl)ccc5o4)CC3)cc2)no1` [Example 23, 1-[3-[4-[4-(5-chlorooxazolo[4,5-b]pyridin-2-yl)piperazine-1-carbonyl]phenyl]-1,2,4-oxadiazol-5-yl]propan-2-one], for which the IC50 was 1550 nM.

Consider `CC(C)(F)c1nc(-c2ccc(C(=O)N3CCN(c4nc5nc(Cl)ccc5o4)CC3)cc2)no1` [Example 24, [4-(5-chlorooxazolo[4,5-b]pyridin-2-yl)piperazin-1-yl]-[4-[5-(1-fluoro-1-methyl-ethyl)-1,2,4-oxadiazol-3-yl]phenyl]methanone], for which the concentration for half-maximal inhibition (IC50) came out at 74 nM.

As for `CC(C)(C)Cc1noc(-c2ccc(C(=O)N3CCN(c4nc5nc(Cl)ccc5o4)CC3)cc2)n1` [Example 25, [4-(5-chlorooxazolo[4,5-b]pyridin-2-yl)piperazin-1-yl]-[4-[3-(2,2-dimethylpropyl)-1,2,4-oxadiazol-5-yl]phenyl]methanone], the IC50 was 3 nM.

Take `O=C(c1ccc(-c2noc(C3(F)CC3)n2)cc1)N1CCN(c2nc3nc(Cl)ccc3o2)CC1` [Example 26, [4-(5-chlorooxazolo[4,5-b]pyridin-2-yl)piperazin-1-yl]-[4-[5-(1-fluorocyclopropyl)-1,2,4-oxadiazol-3-yl]phenyl]methanone]: the IC50 was determined as 206 nM.

For `CC(C)(C)Cn1cnc(-c2ccc(C(=O)N3CCN(c4nc5nc(Cl)ccc5o4)CC3)cc2)n1` [Example 27, [4-(5-chlorooxazolo[4,5-b]pyridin-2-yl)piperazin-1-yl]-[4-[1-(2,2-dimethylpropyl)-1,2,4-triazol-3-yl]phenyl]methanone], the IC50 worked out at 3 nM.

As for `Cc1ccc2oc(N3CCN(C(=O)c4ccc(-c5ncn(CC(C)(C)C)n5)cc4)CC3)nc2n1` [Example 28, [4-[1-(2,2-dimethylpropyl)-1,2,4-triazol-3-yl]phenyl]-[4-(5-methyloxazolo[4,5-b]pyridin-2-yl)piperazin-1-yl]methanone], the IC50 was 12 nM.

On to `CC(C)(C)Cn1cnc(-c2ccc(C(=O)N3CCN(c4nc5nc(Cl)ccc5o4)CC3)cc2)c1` [Example 29, [4-(5-chlorooxazolo[4,5-b]pyridin-2-yl)piperazin-1-yl]-[4-[1-(2,2-dimethylpropyl)imidazol-4-yl]phenyl]methanone], for which the IC50 was 3 nM.

For the compound `CC(C)(C)c1nnc(-c2ccc(C(=O)N3CCN(c4nc5nc(Cl)ccc5o4)CC3)cc2)o1` [Example 30, [4-(5-tert-butyl-1,3,4-oxadiazol-2-yl)phenyl]-[4-(5-chlorooxazolo[4,5-b]pyridin-2-yl)piperazin-1-yl]methanone; 2,2,2-trifluoroacetic acid], the IC50 came to 68 nM.

With `Cc1ccc2oc(N3CCN(C(=O)c4ccc(-c5nnc(C(C)(C)C)o5)cc4)CC3)nc2n1` [Example 31, [4-(5-tert-butyl-1,3,4-oxadiazol-2-yl)phenyl]-[4-(5-methyloxazolo[4,5-b]pyridin-2-yl)piperazin-1-yl]methanone], the IC50 was 260 nM.

As to `CC(C)(O)Cc1nc(-c2ccc(C(=O)N3CCN(c4nc5nc(Cl)ccc5o4)CC3)cc2)no1` [Example 32, [4-(5-chlorooxazolo[4,5-b]pyridin-2-yl)piperazin-1-yl]-[4-[5-(2-hydroxy-2-methyl-propyl)-1,2,4-oxadiazol-3-yl]phenyl]methanone], the half-maximal inhibitory concentration (IC50) is 653 nM.

On to `Cc1ccc2oc(N3CCN(C(=O)c4ccc(-c5nnc(C(C)(C)CF)o5)cc4)CC3)nc2n1` [Example 33, [4-[5-(2-fluoro-1,1-dimethyl-ethyl)-1,3,4-oxadiazol-2-yl]phenyl]-[4-(5-methyloxazolo[4,5-b]pyridin-2-yl)piperazin-1-yl]methanone], for which the 50% inhibitory concentration (IC50) worked out at 498 nM.
